# Data from PubChem BioAssay (NCI).
# “And” between values parts separate entries of the source, which are not always exact repeats. Equal entries are not always repeated.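 1) Cells in 96-well plates. 2) Compound, 48 h, 5 concentrations. 3) Linear interpolation between surrounding doses. 4) Unreached endpoint = highest concentration. Abbreviation: GI50, concentration required for 50% inhibition of growth. TGI marks complete inhibition of growth.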
# Experiments:
# Assay in all cases: growth of human tumour cells (NCI), 48 h
# HCC-2998 colon = tested on: HCC-2998 colon
# A549 NSCLC = tested on: A549 NSCLC
# U251 CNS = tested on: U251 CNS
# OVCAR-3 ovarian = tested on: OVCAR-3 ovarian
# SK-MEL-2 melanoma = tested on: SK-MEL-2 melanoma
# OVCAR-5 ovarian = tested on: OVCAR-5 ovarian
# SR leukemia = tested on: SR leukemia
# SF-539 CNS = tested on: SF-539 CNS
# TK-10 renal = tested on: TK-10 renal
# HCT-116 colon = tested on: HCT-116 colon
Structure (SMILES),GI50 (HCC-2998 colon),TGI (HCC-2998 colon),GI50 (A549 NSCLC),TGI (A549 NSCLC),GI50 (U251 CNS),TGI (U251 CNS),GI50 (OVCAR-3 ovarian),TGI (OVCAR-3 ovarian),GI50 (SK-MEL-2 melanoma),TGI (SK-MEL-2 melanoma),GI50 (OVCAR-5 ovarian),TGI (OVCAR-5 ovarian),GI50 (SR leukemia),TGI (SR leukemia),GI50 (SF-539 CNS),TGI (SF-539 CNS),GI50 (TK-10 renal),TGI (TK-10 renal),GI50 (HCT-116 colon),TGI (HCT-116 colon)
COc1ccc2c(c1)c(-c1ccc(-c3cn(C)c4ccc(OC)cc34)s1)cn2C,> 100 µM,> 100 µM,> 100 µM,> 100 µM,> 100 µM,> 100 µM,> 100 µM,> 100 µM,> 100 µM,> 100 µM,> 100 µM,> 100 µM,> 100 µM,> 100 µM,> 100 µM,> 100 µM,> 100 µM,> 100 µM,> 100 µM,> 100 µM
CCOc1cc(/C=C/C(=O)CC(=O)/C=C/c2ccc(OC(=O)CNc3nc4ccc(OC)cc4s3)c(OCC)c2)ccc1OC(=O)CNc1nc2ccc(OC)cc2s1,3.16 µM,14.8 µM,4.94 µM,31 µM,3.93 µM,14.5 µM,4.45 µM,29 µM,4.94 µM,29.1 µM,15.3 µM,34 µM,1.77 µM,4.66 µM,2.12 µM,5.14 µM,11.4 µM,27.5 µM,3.02 µM,15.1 µM
CN1CCC2(CC1)C(=O)Nc1cc(NC(=O)c3ccc4c(c3)C[C@@H]3C(C)(C)[C@H](O)[C@H](F)C[C@@]3(C)O4)ccc12,14.2 µM,48.3 µM,2.74 µM,37.2 µM,0.0472 µM,16.4 µM,18.5 µM,66.8 µM,11.3 µM,32.3 µM,12.3 µM,> 100 µM,0.0514 µM,88.2 µM,0.0565 µM,15.9 µM,21.4 µM,76.3 µM,1.35 µM,17.2 µM
COCCn1c(Nc2ccc(C(=O)NO)cc2)nc2ccccc21,3.32 µM,12.6 µM,4.9 µM,23 µM,3.99 µM,18.6 µM,3.24 µM,14.1 µM,5.33 µM,50.3 µM,1.69 µM,8.23 µM,1.69 µM,> 100 µM,4.56 µM,25.1 µM,3.19 µM,44.6 µM,2.11 µM,6.54 µM
O=C(Nc1ccc(Nc2ccc3c(c2)C(=O)c2ccccc2C3=O)c2c1C(=O)c1ccccc1C2=O)c1ccccc1,,86.9 µM,,> 100 µM,,98.7 µM,,> 100 µM,,> 30.5 µM,,> 100 µM,,17.1 µM,,> 100 µM,,> 100 µM,,> 100 µM
O=C(O)C1CCCN1 (centres undefined),,> 100 µM,,> 100 µM,,> 100 µM,,> 100 µM,,> 100 µM,,> 100 µM,,> 100 µM,,> 100 µM,,> 100 µM,,> 100 µM
O=c1oc2ccccc2cc1P(=O)(O)O,,> 100 µM,,> 100 µM,,> 100 µM,,> 100 µM,,> 100 µM,,> 100 µM,,> 100 µM,,> 100 µM,,> 100 µM,,> 100 µM
CN(C)CCN1C(=O)c2cccc3cc(N)cc(c23)C1=O,4.69 µM,22.1 µM and 12 µM,0.912 µM and 1.51 µM,> 21.5 µM and 9.09 µM,2.85 µM,> 46.7 µM and 20.6 µM,4.98 µM,25.9 µM and 26.4 µM,3.73 µM,13 µM and 9.4 µM,3.98 µM,48.7 µM and 13.8 µM,3.38 µM and 0.824 µM,> 40.8 µM and 11 µM,,18.2 µM and 14.7 µM,3.27 µM,24.9 µM and 14.4 µM,3.21 µM,> 60.2 µM and 9.87 µM
Clc1ccc(NCNC2Nc3ccccc3N2)cc1Cl,,> 100 µM,,> 100 µM,,> 100 µM,,> 100 µM,,79.6 µM,,> 100 µM,,> 100 µM,,> 100 µM,,> 100 µM,,> 100 µM
O=C(c1ccccc1)[C@H]1Nc2ccc(Cl)cc2[C@H]2c3ccccc3O[C@H]21,,31.5 µM,,30.2 µM,,29.2 µM,,25.7 µM,,27.3 µM,,29.5 µM,,66.6 µM,,28.7 µM,,30.4 µM,,34.3 µM
[O-]c1ccccc1C=NCCN=Cc1ccccc1[O-].[O]=[U+2]=[O],27.9 µM,83.6 µM,43.1 µM,> 100 µM,19.3 µM,39.1 µM,24.5 µM,95.3 µM,22 µM,> 62.7 µM,> 100 µM,> 100 µM,51.1 µM,> 100 µM,16.7 µM,37.6 µM,26.3 µM,53.1 µM,46.2 µM,> 100 µM
Cc1ccc(/C=C/C(=O)c2ccc(F)cc2)s1,2.2 µM,5.14 µM,4.22 µM,17.6 µM,2.85 µM,11.2 µM,1.8 µM,3.29 µM,4.35 µM,15.6 µM,5.39 µM,18.6 µM,2.86 µM,20 µM,3.56 µM,10.2 µM,1.84 µM,4.33 µM,1.86 µM,3.37 µM
c1ccc2[nH]c(-c3ccc(Nc4nc(N5CCCC5)nc5[nH]ncc45)cc3)nc2c1,0.294 µM,0.826 µM,0.329 µM,1.22 µM,0.185 µM,0.39 µM,0.753 µM,2.81 µM,1.71 µM,3.37 µM,1.23 µM,2.87 µM,0.254 µM,0.87 µM,1.05 µM,2.24 µM,1.91 µM,3.53 µM,0.203 µM,0.473 µM
C=C(C)[C@@H]1CC[C@]2(C(=O)OC)CC[C@]3(C)[C@H](CC[C@@H]4[C@@](C)(CCc5nn[nH]n5)[C@H](C(=C)C)CC[C@]43C)[C@@H]12,15.8 µM,30.5 µM,12.4 µM,34.9 µM,15.4 µM,32.4 µM,13.5 µM,27 µM,16.7 µM,39.5 µM,19.4 µM,35.9 µM,11.4 µM,49.4 µM,16.5 µM,30.7 µM,30.9 µM,> 100 µM,26.9 µM,> 100 µM
